“And” between values parts separate entries of the source, which are not always exact repeats. Equal entries are not always repeated. “Also recorded” adds a separate entry of the source. The star is where a group is joined. Palmitoyl = CCCCCCCCCCCCCCCC(=O)*; Myristoyl = CCCCCCCCCCCCCC(=O)*
What was measured:
EAE mice = assay: Experimental allergic encephalomyelitis (EAE), MOG35-55/CFA immunized mice; type: in vivo, C57BL/6J mice; details: for Score on day 18 / Score on day 29 / Score on day 37: EAE scale 0-6; for EAE score on the initial day: scale 0-6; for Number of dead mice during 49 days: n=7
keratinocytes = assay: Cytokine secretion in LPS, TNFα or IL-17 activated keratinocytes treated with peptide PKCα inhibitors (ELISA); type: cell-based, BALB/C mice; details: for cytokine secretion in keratinocytes: stimulated by LPS, TNFα, or IL-17, medium collected after 48 hr
Method: To determine their effects, keratinocytes were derived from newborn BALB/C mice skin. The cells were incubated for 5 days in 24 wells plate. Cells were then incubated with PBS −/− as control or stimulated by LPS, TNFα, or IL-17. PKCα inhibitors were added as indicated. Medium containing secreted cytokines was collected after 48 hr and analyzed using ELISA. FIG. 50 is a tabular summary of cytokine secretion.

[1] = system: STZ-induced diabetic C57BL/6J mice; assay: Wound healing in STZ-induced diabetic mice; type: in vivo
Method: Full thickness skin incisions (20 mm) were performed on the upper back of anesthetized streptozocin (STZ)-injected (175 mg/kg body weight) diabetic, citrate buffer injected (6 mice/group) non-diabetic, and non-injected (6 mice/group), C57BL/6J mice. Periodical blood glucose monitoring was performed by measuring glucose levels from tail vein after STZ injection. […] Following incision, STZ-induced diabetic wounds were treated daily by application of PBS (7/6 mice/group), insulin (0.1 units/ml) (6 mice/group), the PKCa inhibitor of SEQ ID NO:6 (1 μg/ml) (7/5 mice/group) or a formulation (herein designated HO/03/03) containing insulin and the N-myristoylated PKCα inhibitor of SEQ ID NO: 6 (7/6 mice/group) directly to the surgical dressing. Biopsies were collected 9 days post-wounding. Wounds were excised from euthanized animals for evaluation of wound-healing parameters by histology and immunohistochemistry.
Wounds were assessed for epidermal closure by Keratin 14 staining. Wounds were considered closed when complete epidermal staining was observed across the wound gap. Dermal contraction was considered when both dermal edges were visible in a fixed field ×100 magnification utilizing H&E staining. Epidermal differentiation was assessed by Keratin 1 staining.
The organization of hypodermis was assessed by the presence (or absence) of hypodermis at both wound edges. Granulation tissue formation was assessed by the presence of fibroblasts and collagen fibers in the wound bed. The wound was considered positive for granulation tissue formation when a continuous layer of granulation tissue was present in the wound gap. In addition, we have defined 3 specific histological parameters characterizing severe inflammation of diabetic wounds: (i) abscess formation at the wounded area, (ii) excessive leukocytosis (>100 cells in a fixed field (×200)) and (iii) high white blood cells (WBC)/red blood cells (RBC) ratio within the blood vessels shown in a fixed field (×200). When at least 2 of these parameters are present at the wound gap, the wound is considered severely inflamed.

C57BL mice [2] = assay: Incision wounds treated 7 days, severe inflammation incidence (Example 10); type: in vivo; details: 1 μM daily for 7 days
Method: Wounds were performed on the back of C57BL mice by incision and were treated daily for 7 days with: (i) PBS, control; (ii) 1 μM of the PKCα inhibitor of SEQ ID NO: 6; (iii) 1 μM insulin (Humulin, Eli Lilly, USA); or (iv) a mixture of 1 μM PKCα inhibitor and 1 μM insulin.

C57BL mice [3] = assay: Incision wounds treated 7 days, histological analysis (Example 9); type: in vivo
Method: Wounds were performed on the back of 8-10 week old C57BL mice by incision and were treated daily for 7 days with either vehicle (PBS) control or with 1 μM insulin (Humulin, Eli Lilly, USA) or a mixture of 1 μM insulin combined with 1 μM of the PKCα inhibitor of SEQ ID NO: 6. Seven days after wounding all mice were sacrificed and treated wounds were histologically analyzed for proliferative capacity of the epidermis (proliferating cell nuclear antigen-PCNA), angiogenesis, inflammation, epidermal cells and the remodeling processes at the wound gap.

[4] = 9-days post wounding, percent of wounds in group, insulin 0.1 units, HO/02 1 ug/ml
[5] = 9-days post wounding, percent of wounds in group, insulin 0.1 units, SEQ ID NO: 6 1 ug/ml
[6] = individual wounds, 1 μM daily for 7 days, listed as Insulin only

## Myristoyl-Thru-Arg-Lys-Arg-Gln-Arg-Ala-Met-Arg-Arg-Arg-Val-His-Gln-Ile-Asn-Gly-OH (Myristoyl-TRKRQRAMRRRVHQING-OH; SMILES CCCCCCCCCCCCCC(=O)N[C@H](C(=O)N[C@@H](CCCNC(=N)N)C(=O)N[C@@H](CCCCN)C(=O)N[C@@H](CCCNC(=N)N)C(=O)N[C@@H](CCC(N)=O)C(=O)N[C@@H](CCCNC(=N)N)C(=O)N[C@@H](C)C(=O)N[C@@H](CCSC)C(=O)N[C@@H](CCCNC(=N)N)C(=O)N[C@@H](CCCNC(=N)N)C(=O)N[C@@H](CCCNC(=N)N)C(=O)N[C@H](C(=O)N[C@@H](Cc1c[nH]cn1)C(=O)N[C@@H](CCC(N)=O)C(=O)N[C@H](C(=O)N[C@@H](CC(N)=O)C(=O)NCC(=O)O)[C@@H](C)CC)C(C)C)[C@@H](C)O) [MPE-1]
EAE mice; 0.1 mg/kg
  The initial day (of illness signs): 11 days
  Score on day 18: 2.857
  Score on day 29: 1.929
  Score on day 37: 1.429
  EAE score on the initial day: 0.429
EAE mice; 0.1 mg/kg (0.1 μg/ml)
  EAE severity / score compared to control group: reduced EAE severity
EAE mice; 1 mg/kg
  The initial day (of illness signs): 10 days
  Score on day 18: 3.071
  Score on day 29: 4.286
  Score on day 37: 4.286
  EAE score on the initial day: 0.429
EAE mice; 1 mg/kg i.p. three times a week
  Number of dead mice during 49 days: 4
EAE mice; concentration of 0.1 μg/ml, control group score 2.86
  average group score at the end of the experiment (day 42): 2.00

## Myristoyl-Phe-Ala-Arg-Lys-Gly-Ala-Leu-OH-trifluoracetate salt (Myristoyl-FARKGAL-OH; also: trifluoroacetate salt) [AIP-2]
keratinocytes
  cytokine secretion in keratinocytes: effective in decreasing cytokine secretion

## Myristoyl-Phe-Ala-Arg-Lys-Gly-Ala-Leu-OH (Myristoyl-FARKGAL-OH; SMILES CCCCCCCCCCCCCC(=O)N[C@@H](Cc1ccccc1)C(=O)N[C@@H](C)C(=O)N[C@@H](CCCNC(=N)N)C(=O)N[C@@H](CCCCN)C(=O)NCC(=O)N[C@@H](C)C(=O)N[C@@H](CC(C)C)C(=O)O) [MPDY-1 sh]
keratinocytes
  cytokine secretion from IL-17A activated keratinocytes: decrease cytokine secretion
  cytokine secretion from LPS and TNFα activated keratinocytes: decrease cytokine secretion

## Insulin: insulin (Humulin, Eli Lilly, USA)
[1]; [4]
  Dermal closure (H&E): 0%
  Epidermal closure (K14): 17%
  Epidermal differentiation (Kl): 0%
[1]; [5]
  Granulation tissue: 40%
  Hypodermis: 10%
  Severe inflammation: 100%
[1]; 9 days post-wounding
  overall healing effect in diabetic wounds: only partial healing effects
C57BL mice [2]
  anti-inflammatory effect on wounds: no anti-inflammatory effect
C57BL mice [2]; PBS control 60
  Incidence of severe inflammation in wound (%): 56%
C57BL mice [3]; 1 μM daily for 7 days
  adverse side effects at the wound: increased inflammation, hyperplasia of epidermal cells, delayed differentiation of the spinous layer of epidermal cells and increased scarring
C57BL mice [3]; 1 μM daily for 7 days, PBS control 25%
  incidence of abnormal angiogenesis in the wound area: 60%
C57BL mice [3]; group average, N = 5, 1 μM daily for 7 days
  Proliferative capacity of the epidermis (layers of basal cells, PCNA), average: average 6.4
C57BL mice [3]; [6]
  Angiogenesis: high abnormal; also recorded: normal
  Proliferative capacity of the epidermis (layers of basal cells, PCNA): 8 (2×) and 6 and 5 (2×)

## H-Thr-Leu-Asn-Pro-Gln-Trp-Glu-Ser-OH (H-TLNPQWES-OH) [AIP-1]
keratinocytes
  cytokine secretion in keratinocytes: effective in decreasing cytokine secretion

## Palmitoyl-Phe-Ala-Arg-Lys-Gly-Ala-Leu-Arg-Gln-OH-acetate salt (Palmitoyl-FARKGALRQ-OH; also: acetate salt) [PPDY-1]
keratinocytes
  cytokine secretion in keratinocytes: effective in decreasing cytokine secretion

## H-Phe-Ala-Arg-Lys-Gly-Ala-Leu-Arg-Gln-OH (H-FARKGALRQ-OH) [AWOT-1]
keratinocytes
  cytokine secretion in keratinocytes: effective in decreasing cytokine secretion

## H-Phe-Ala-Arg-Lys-Gly-Ala-Leu-Arg-Gln-OH-acetate salt (H-FARKGALRQ-OH; also: acetate salt) [PDY-1]
keratinocytes
  cytokine secretion from IL-17A activated keratinocytes: decrease cytokine secretion
  cytokine secretion from LPS and TNFα activated keratinocytes: decrease cytokine secretion

## CRAMP [reference compound]
EAE mice; 0.2 mg/kg
  The initial day (of illness signs): 10 days
  Score on day 18: 3.214
  Score on day 29: 2.000
  Score on day 37: 2.571
  EAE score on the initial day: 0.571
EAE mice; 0.2 mg/kg i.p. three times a week
  Number of dead mice during 49 days: 2
EAE mice; 2 mg/kg
  The initial day (of illness signs): 11 days
  Score on day 18: 2.643
  Score on day 29: 2.643
  Score on day 37: 2.143
  EAE score on the initial day: 0.143
EAE mice; 2 mg/kg i.p. three times a week
  Number of dead mice during 49 days: 2

Source: patent US20130274196A1, “METHOD FOR TREATMENT OF INFLAMMATORY DISEASE AND DISORDER” (HEALOR LTD., priority 2010, published 2013)
